Literature values in patent US20240139197A1, “INHIBITION OF KDM5A FOR PROMOTING ANTIGEN PRESENTATION, INCREASING CD8+ T CELL INFILTRATION AND BOOSTING ANTI-TUMOR IMMUNE RESPONSE” (The Wistar Institute of Anatomy and Biology, priority 2022, published 2024).
Where two headings read alike, the source gives them in different places.

Experiments:
KDM5B = KDM5B (Homo sapiens (Human), UniProt Q9UGL1); settings: biochemical assay with pre-incubation; cited from earlier work
KDM5A [1] = target: T1, KDM5A (Homo sapiens (Human), UniProt P29375); settings: biochemical assay with pre-incubation; cited from earlier work
KDM4C = KDM4C (Homo sapiens (Human), UniProt Q9H3R0); settings: biochemical assay with pre-incubation; cited from earlier work
KDM5A [2] = target: T1, KDM5A; settings: KDM5A inhibitors disclosed in Miyake et al; cited from earlier work

Chain of KDM4C (Q9H3R0 whole entry, species assumed): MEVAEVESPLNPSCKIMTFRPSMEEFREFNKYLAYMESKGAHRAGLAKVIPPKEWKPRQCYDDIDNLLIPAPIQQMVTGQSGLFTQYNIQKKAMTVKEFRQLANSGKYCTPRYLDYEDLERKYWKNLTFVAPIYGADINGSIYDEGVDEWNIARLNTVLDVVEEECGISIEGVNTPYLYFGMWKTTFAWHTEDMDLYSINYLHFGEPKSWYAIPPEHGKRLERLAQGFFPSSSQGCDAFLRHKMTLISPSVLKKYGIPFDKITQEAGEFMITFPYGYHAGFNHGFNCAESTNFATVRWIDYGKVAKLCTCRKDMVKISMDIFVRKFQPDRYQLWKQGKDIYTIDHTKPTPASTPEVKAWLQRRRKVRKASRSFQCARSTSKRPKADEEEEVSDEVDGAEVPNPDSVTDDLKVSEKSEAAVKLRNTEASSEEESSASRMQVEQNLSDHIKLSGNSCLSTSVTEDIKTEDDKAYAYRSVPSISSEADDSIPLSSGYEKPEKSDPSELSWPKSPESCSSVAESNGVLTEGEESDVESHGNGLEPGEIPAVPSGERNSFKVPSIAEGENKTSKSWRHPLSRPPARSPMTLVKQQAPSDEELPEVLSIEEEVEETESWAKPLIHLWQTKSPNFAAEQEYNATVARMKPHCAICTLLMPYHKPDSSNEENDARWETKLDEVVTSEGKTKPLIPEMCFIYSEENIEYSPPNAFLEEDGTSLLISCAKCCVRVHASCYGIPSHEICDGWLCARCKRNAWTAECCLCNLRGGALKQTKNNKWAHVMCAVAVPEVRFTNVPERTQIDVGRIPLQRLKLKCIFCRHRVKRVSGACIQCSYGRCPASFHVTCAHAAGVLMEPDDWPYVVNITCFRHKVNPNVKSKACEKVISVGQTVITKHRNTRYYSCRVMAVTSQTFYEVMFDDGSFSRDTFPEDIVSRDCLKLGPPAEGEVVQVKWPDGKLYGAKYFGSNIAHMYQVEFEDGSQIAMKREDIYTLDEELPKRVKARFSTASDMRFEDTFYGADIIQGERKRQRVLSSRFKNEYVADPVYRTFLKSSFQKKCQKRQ
T1 sequence (P29375 whole entry): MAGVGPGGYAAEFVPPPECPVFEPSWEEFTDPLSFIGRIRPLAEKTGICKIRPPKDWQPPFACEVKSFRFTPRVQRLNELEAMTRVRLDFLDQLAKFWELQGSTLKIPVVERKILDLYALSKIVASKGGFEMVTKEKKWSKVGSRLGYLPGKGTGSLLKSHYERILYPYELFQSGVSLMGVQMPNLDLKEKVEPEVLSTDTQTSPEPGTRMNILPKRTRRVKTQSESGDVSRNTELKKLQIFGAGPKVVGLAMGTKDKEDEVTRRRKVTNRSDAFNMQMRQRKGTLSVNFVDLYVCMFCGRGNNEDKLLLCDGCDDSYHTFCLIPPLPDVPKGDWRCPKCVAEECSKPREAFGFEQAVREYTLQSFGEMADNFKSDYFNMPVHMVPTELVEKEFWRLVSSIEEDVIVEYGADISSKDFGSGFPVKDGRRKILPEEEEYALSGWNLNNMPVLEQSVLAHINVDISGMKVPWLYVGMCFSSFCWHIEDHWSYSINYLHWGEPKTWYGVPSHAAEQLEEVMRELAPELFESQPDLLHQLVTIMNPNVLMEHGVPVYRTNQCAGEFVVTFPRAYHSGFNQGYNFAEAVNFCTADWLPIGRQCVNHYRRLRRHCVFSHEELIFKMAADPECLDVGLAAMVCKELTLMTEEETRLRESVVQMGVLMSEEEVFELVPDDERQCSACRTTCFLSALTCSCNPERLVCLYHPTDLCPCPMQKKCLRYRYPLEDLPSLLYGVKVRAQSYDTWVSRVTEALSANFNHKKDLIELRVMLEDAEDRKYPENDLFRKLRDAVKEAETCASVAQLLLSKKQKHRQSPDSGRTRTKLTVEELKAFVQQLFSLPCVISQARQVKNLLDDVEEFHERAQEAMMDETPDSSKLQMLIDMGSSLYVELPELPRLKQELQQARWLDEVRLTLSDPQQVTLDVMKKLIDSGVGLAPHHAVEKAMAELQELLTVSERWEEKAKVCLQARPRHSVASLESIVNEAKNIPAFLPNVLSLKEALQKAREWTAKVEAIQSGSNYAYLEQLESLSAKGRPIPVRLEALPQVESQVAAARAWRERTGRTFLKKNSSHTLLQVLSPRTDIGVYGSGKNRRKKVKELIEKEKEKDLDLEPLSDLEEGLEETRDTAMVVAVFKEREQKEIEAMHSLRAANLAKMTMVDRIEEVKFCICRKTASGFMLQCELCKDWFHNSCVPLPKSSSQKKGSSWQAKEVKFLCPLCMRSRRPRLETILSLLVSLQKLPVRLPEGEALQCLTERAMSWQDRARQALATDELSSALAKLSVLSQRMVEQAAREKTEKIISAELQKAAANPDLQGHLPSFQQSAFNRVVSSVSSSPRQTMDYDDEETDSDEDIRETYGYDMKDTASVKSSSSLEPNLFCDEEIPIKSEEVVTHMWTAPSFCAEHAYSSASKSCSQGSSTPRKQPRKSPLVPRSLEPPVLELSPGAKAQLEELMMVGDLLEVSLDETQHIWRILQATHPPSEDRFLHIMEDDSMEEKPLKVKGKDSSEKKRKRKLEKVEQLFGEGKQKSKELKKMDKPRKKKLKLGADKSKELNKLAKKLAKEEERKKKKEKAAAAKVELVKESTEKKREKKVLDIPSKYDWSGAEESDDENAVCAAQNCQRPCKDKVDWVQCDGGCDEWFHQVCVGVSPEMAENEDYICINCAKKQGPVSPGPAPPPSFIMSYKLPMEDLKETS
Chain of KDM5B (Q9UGL1 whole entry, species assumed): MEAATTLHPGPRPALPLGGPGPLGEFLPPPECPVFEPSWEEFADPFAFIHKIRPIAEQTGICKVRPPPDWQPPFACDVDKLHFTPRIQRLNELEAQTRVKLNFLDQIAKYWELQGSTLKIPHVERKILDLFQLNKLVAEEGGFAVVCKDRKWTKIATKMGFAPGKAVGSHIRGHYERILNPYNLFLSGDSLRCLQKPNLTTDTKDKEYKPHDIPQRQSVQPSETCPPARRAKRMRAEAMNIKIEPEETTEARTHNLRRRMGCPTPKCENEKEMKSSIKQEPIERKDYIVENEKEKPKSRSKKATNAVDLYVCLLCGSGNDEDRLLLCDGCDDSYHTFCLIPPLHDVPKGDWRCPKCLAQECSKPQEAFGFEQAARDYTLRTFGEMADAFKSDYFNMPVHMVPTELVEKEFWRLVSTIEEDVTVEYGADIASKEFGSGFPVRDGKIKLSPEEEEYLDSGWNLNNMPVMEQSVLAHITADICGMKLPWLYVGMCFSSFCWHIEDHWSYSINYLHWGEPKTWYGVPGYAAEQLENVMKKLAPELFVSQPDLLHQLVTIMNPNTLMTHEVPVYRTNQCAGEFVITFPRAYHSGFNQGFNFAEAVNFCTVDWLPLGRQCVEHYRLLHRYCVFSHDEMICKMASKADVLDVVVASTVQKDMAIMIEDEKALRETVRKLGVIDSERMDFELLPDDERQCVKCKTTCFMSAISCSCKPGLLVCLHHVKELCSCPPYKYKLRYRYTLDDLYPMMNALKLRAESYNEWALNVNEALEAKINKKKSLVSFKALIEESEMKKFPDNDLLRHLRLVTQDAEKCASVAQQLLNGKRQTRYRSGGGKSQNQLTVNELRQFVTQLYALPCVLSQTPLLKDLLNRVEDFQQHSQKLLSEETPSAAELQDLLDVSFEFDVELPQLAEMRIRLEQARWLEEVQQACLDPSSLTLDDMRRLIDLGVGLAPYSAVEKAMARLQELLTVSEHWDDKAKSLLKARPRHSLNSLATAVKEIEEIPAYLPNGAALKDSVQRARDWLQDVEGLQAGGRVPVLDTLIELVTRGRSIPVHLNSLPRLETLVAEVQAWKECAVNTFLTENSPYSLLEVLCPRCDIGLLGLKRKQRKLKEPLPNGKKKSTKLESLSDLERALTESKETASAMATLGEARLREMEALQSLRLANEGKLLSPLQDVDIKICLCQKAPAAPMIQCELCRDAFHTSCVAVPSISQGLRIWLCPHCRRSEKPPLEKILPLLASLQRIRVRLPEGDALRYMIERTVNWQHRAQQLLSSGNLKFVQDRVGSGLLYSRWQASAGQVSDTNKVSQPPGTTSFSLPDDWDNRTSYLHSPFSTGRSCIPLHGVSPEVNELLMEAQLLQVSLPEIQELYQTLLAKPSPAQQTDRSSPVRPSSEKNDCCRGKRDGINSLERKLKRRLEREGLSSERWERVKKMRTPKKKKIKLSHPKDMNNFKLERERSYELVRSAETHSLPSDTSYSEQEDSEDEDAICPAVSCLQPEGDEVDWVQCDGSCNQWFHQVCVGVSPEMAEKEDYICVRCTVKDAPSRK

## O=C(O)c1ccnc(-n2nccc2OCc2ccc(Cl)cc2F)c1 [Compound 32]
KDM5B
  IC50: 4 nM
KDM5A [1]
  IC50: 18 nM

## CCOc1cc(Cl)ccc1COc1ccnn1-c1cc(C(=O)O)ccn1 [Compound 35]
KDM5B
  IC50: 4 nM
KDM4C
  IC50: 78 nM

## CCCCCCN(C)CCc1ccc(-c2[nH]c3c(C#N)cnn3c(=O)c2C(C)C)cc1 [Compound 13]
KDM5A [2]
  IC50: 4.37 ± 0.19 nM

## CCCCCCN(C)Cc1cccc(-c2[nH]c3c(C#N)cnn3c(=O)c2C(C)C)c1 [Compound 11]
KDM5A [2]
  IC50: 65.3 ± 8.6 nM

## CCCCCCN(C)Cc1cc(-c2[nH]c3c(C#N)cnn3c(=O)c2C(C)C)cs1 [Compound 12]
KDM5A [2]
  IC50: 179 ± 12 nM

## COc1cc(Cl)ccc1COc1ccnn1-c1cc(C(=O)O)ccn1 [Compound 34]
KDM5A [1]
  IC50: 12 nM
KDM4C
  IC50: 38 nM

## Cc1cc(Cl)ccc1COc1ccnn1-c1cc(C(=O)O)ccn1 [Compound 33]
KDM5B
  IC50: 2 nM
KDM5A [1]
  IC50: 13 nM
KDM4C
  IC50: 41 nM

## O=C(O)c1ccnc(-n2nccc2OCc2ccc(Cl)cc2OCC2CC2)c1 [Compound 36]
KDM4C
  IC50: 280 nM
